Experimental findings from paper PMC9804055, “Kinase inhibit region of SOCS3 attenuates IL6‐induced proliferation and astrocytic differentiation of neural stem cells via cross talk between signaling pathways” (CNS Neuroscience & Therapeutics, 2022) are described below.

What all share (type): cell-based, SD rats
For assay [1], the system named is p‐AKT. Kind of assay: Western blotting, p-AKT/AKT. To be noted: for rate of p-AKT to AKT: mean ± SD, n = 3. How it is done:
(§1) NSCs at 1 × 10^6 cells/ml in 6‐well plate were treated with IL‐6 and TAT‐KIR as above. Cells were harvested at 3 h, 6 h, 12 h, 24 h, or 7 days after treatment. Cells were suspended in lysis buffer containing 150 μl RIPA (#89900, Pierce) protease and phosphatase inhibitor cocktail (#4693159001 and 04906845001, Roche). Cell lysates were incubated on ice for 20 min and centrifuged at 12,000 rpm for 15 min at 4°C. The proteins in supernatant were separated by electrophoresis with 10%–12% sodium dodecyl sulfate polyacrylamide gel (SDS‐PAGE) and then transferred onto 0.22 μm polyvinylidene difluoride membranes (PVDF; #IPVH00010, Millipore). The membranes were blocked in 5% BSA dissolved in Tris‐buffered saline containing 0.1% Tween‐20 for 2 h at room temperature and then were incubated overnight at 4°C with primary antibodies, including GFAP (#ab7260, Abcam, 1:1000), β Tublin III (#MAB1637, Millipore, 1:1000), and STAT3, p‐STAT3, P38, p‐P38, ERK1/2, p‐ERK1/2, AKT, p‐AKT, JNK2, p‐JNK2(#4904, 9145, 8690, 4511, 4695, 9101, 4685, 4060, 9258, 4668, Cell Signaling, all in 1:1000) and β‐actin (#A01263, Boster Biological Technology, 1:20,000). After washing, the membranes were incubated with the secondary antibodies (HRP conjugated anti‐rabbit or anti‐mouse IgG) for 2 h at room temperature. The membranes were visualized by an enhanced chemiluminescence (ECL) kit. All data were analyzed with Image J (version 1.61).

Assay [2] relates to NSCs. Kind of assay: Cell cycle analysis by FACS, proliferation index. As to conditions: third day, mean ± SD, n = 3. The procedure: (§2) NSCs survival and growth were analyzed by using cell counting kit‐8 (#CK04, Dojindo, CCK‐8). NSCs were randomly allocated in the Control, TAT‐scramble, TAT‐KIR, IL‐6, and TAT‐KIR+IL6 groups. All NSCs seeded into 96‐well plates at 5 × 10^4 cells/ml and cultured in growth medium for 24 h. IL‐6 in the concentration of 100 ng/ml was applied to mimic inflammatory condition. Thirty minutes later, TAT‐KIR or TAT‐scramble was added into the culture system. Cell viability of each group was observed by Universal Microplate Spectrophotometer (QuantTM, BioTek) at first, third, and fifth day after peptide administration (Figure 3A). Optical density (OD) values at 450 nm were measured. Immunocytochemistry staining with ki67 (#ab16667, Abcam, 1:300) was used to assess NSC proliferation. Cell cycles were analyzed by FACS at third day after peptide administration. The rates of cells in G0/G1, S, and G2/M were measured, and the proliferation index (PI) {PI = (S + G2/M)/([…] + S + G2/M) × 100%} was calculated, respectively. In each independent experiment, the procedures were carried out in triplicate.

In assay [3] the test system is NSCs. Kind of assay: Ki67 immunocytochemistry, NSC proliferation. To be noted: 3 days, mean ± SD. How it is done:
as §2

Assay [4] deals with β tubulin III. The experiment in a line: Western blotting, β tubulin III expression. As to conditions: mean ± SD, n = 3. How it is done: as §1, with “The membranes were visualized by an enhanced chemiluminescence (ECL) kit.” left out
Assay [5] concerns p‐JNK2. Kind of assay: Western blotting, p-JNK2/JNK2. As to conditions: mean ± SD, n = 3. How it is done:
as §1

The subject of assay [6] is p‐STAT3. The experiment in a line: Western blotting, p-STAT3/STAT3. As to conditions: for rate of p-STAT3 to STAT3: differentiation medium, 7 days, mean ± SD, n = 3. How it is done: as §1
The test system of assay [7] is GFAP. Kind of assay: Western blotting, GFAP expression. To be noted: mean ± SD, n = 3. The procedure:
as §1, with “The membranes were visualized by an enhanced chemiluminescence (ECL) kit.” left out

Assay [8] relates to NSCs. The experiment in a line: NSCs differentiation, immunostaining of GFAP and β tubulin III positive cells. As to conditions: 7 DIV, mean ± SD, n = 9. How it is done: NSCs at 1 × 10^5 cells/ml were seeded into 24‐well plates allocated randomly in Control, TAT‐KIR, IL‐6, and TAT‐KIR+IL6 groups. After 24 h culture with differentiation media, IL‐6 and TAT‐KIR were added into the medium as above order and reapplied every other day (Figure 4A). Cells were harvested at 7 DIV. Immunocytochemical staining was performed with different antibodies, including GFAP and β Tublin III. […] Then the numbers of GFAP positive and β Tubulin III positive cells were counted, and the percentages of differentiated cells were calculated by using Image J (version 1.61).

For assay [9], the system named is p‐ERK1/2. Kind of assay: Western blotting, p-ERK1/2 / ERK1/2. As to conditions: mean ± SD, n = 3. How it is done:
as §1, with “The membranes were visualized by an enhanced chemiluminescence (ECL) kit.” left out

Setting [10] is: substance alone, 7 days differentiation.
[11] abbreviates: substance alone, PI = (S + G2/M)/(all phases) × 100%.
Setting [12] is: substance alone, growth medium, IL-6 100 ng/ml, TAT-KIR 3 μM, n = 9 figures from three experiments.
The mark [13] stands for this setting: substance alone, 3 h after treatment.
Setting [14] is: substance alone, differentiation medium.
The mark [15] stands for this setting: TAT-KIR together with IL-6, 7 days differentiation.
Setting [16] is: TAT-KIR together with IL-6, treatment for 3 h.
The mark [17] stands for this setting: TAT-KIR together with IL-6 100 ng/ml.

For the substance “IL‐6: inflammatory cytokine, 100 ng/ml applied to mimic inflammatory condition [reference compound]”, the “rate of p-AKT to AKT” value in [1] (setting [10]) turned out to be 1.05 ± 0.081. Besides, in assay [2] (setting [11]), the “proliferation index (PI)” value worked out at 34.61 ± 4.12%. Also, in assay [2] (substance alone), the “percentage of cells in G0/G1 phase” value is reported as 65.39 ± 4.12% and the “percentage of cells in S phase” value stood at 28.14 ± 2.79%. Also, the “percentage of Ki67 positive proliferating cells (Ki67/DAPI)” value in assay [3] (setting [12]) is 54.33 ± 10.29%. Moreover, the “β tubulin III expression (Western blotting)” value in assay [4] (setting [10]) stood at 1.22 ± 0.044. In assay [5] (setting [13]), this substance came in with a p-JNK/JNK of 0.54 ± 0.056. This substance registered a p-JNK/JNK in assay [5] (substance alone, 6 h after treatment) of 0.67 ± 0.062. Also, the “rate of p-JNK2 to JNK2” value in assay [5] (setting [10]) is recorded as 0.63 ± 0.049. Besides, the “rate of p-STAT3 to STAT3” value in assay [6] (substance alone) is listed as 0.88 ± 0.093. Besides, the “GFAP expression (Western blotting)” value in assay [7] (setting [10]) is on record as 1.30 ± 0.127. For the same substance, in assay [8] (setting [14]), the “percentage of GFAP positive cells (astrocytic differentiation)” value is given as 45.72 ± 7.50% and the “percentage of β tubulin III positive cells (neuronal differentiation)” value was 32.33 ± 5.68%. For the same substance, in assay [9] (setting [10]), the “rate of p-ERK1/2 to ERK1/2” value amounted to 0.75 ± 0.070.

On to RKKRRQRRR‐LR‐LKTFSSKSEYQL‐V [TAT‐KIR], for which the “rate of p-AKT to AKT” value in assay [1] (setting [15]) is recorded as 0.87 ± 0.037. Besides, the “p-AKT expression of IL-6-induced NSCs” value in [1] (setting [16]) was “dramatically reduced”. Further, the entries for the “percentage of cells in G0/G1 phase” value in assay [2] (setting [17]) and in [2] (substance alone) were 73.18 ± 3.04% and 85.66 ± 1.98%, respectively. Moreover, the “percentage of cells in S phase” value was found to be 19.31 ± 3.32% in assay [2] (setting [17]) and 9.56 ± 0.22% in [2] (substance alone). Further, the results for the “proliferation index (PI)” value in assay [2] (setting [17]) and in assay [2] (setting [11]) were 26.82 ± 3.04% and 14.34 ± 1.98%, respectively. The “percentage of Ki67 positive proliferating cells (Ki67/DAPI)” value in [3] (TAT-KIR 3 μM applied together with IL-6 100 ng/ml, n = 9) amounted to 41.33 ± 7.72%; in assay [3] (setting [12]), 20.67 ± 3.74%. Further, the “β tubulin III expression (Western blotting)” value in [4] (setting [15]) was 1.21 ± 0.025. Besides, the “rate of p-JNK2 to JNK2” value in assay [5] (setting [15]) was 0.63 ± 0.042; in [5] (setting [10]) it was “increased trend”. Besides, the p-JNK/JNK is on record as 0.30 ± 0.040 in assay [5] (setting [13]) and 0.50 ± 0.090 in assay [5] (substance alone, 12 h after treatment). Moreover, the figures for the “rate of p-STAT3 to STAT3” value in [6] (setting [17]) and in [6] (substance alone) were 0.61 ± 0.025 and “did not affect”, respectively. The “p-STAT3 expression of IL-6-induced NSCs” value in assay [6] (setting [16]) is given as “dramatically reduced”. Also, the “GFAP expression (Western blotting)” value in assay [7] (setting [15]) stood at 0.88 ± 0.091. Also, the “percentage of GFAP positive cells (astrocytic differentiation)” value is recorded as 36.78 ± 6.81% in assay [8] (setting [17]) and 30.67 ± 4.66% in assay [8] (setting [14]). Further, the “percentage of β tubulin III positive cells (neuronal differentiation)” value amounted to 30.33 ± 4.39% in [8] (setting [17]) and 26.78 ± 4.79% in assay [8] (setting [14]). For the same substance, the “rate of p-ERK1/2 to ERK1/2” value in assay [9] (setting [15]) is 0.68 ± 0.041.
